Assay results as given in US7910622B2, “Modulation of bacterial quorum sensing with synthetic ligands” (Wisconsin Alumni Research Foundation, priority 2007, dated 2011).
Like-named read-outs stand apart in the source and are kept apart here.

Columns and labels:
Experiment in all cases: cell-based
TraR = target: T1, TraR (Agrobacterium tumefaciens, UniProt P33905); conditions: for A. tumefaciens-TraR Activation [%]: 10 μM ligand; for A. tumefaciens-TraR Activation [%] / A. tumefaciens-TraR Inhibition [%] / inhibition at 10 µM: A. tumefaciens WCF47 (pCF372), normalized to OOHL; for A. tumefaciens-TraR Inhibition [%]: 10 μM synthetic ligand against 100 nM OOHL; for activation at 10 µM: read-out: A. tumefaciens-TraR Activation [%]; for inhibition at 10 µM: read-out: A. tumefaciens-TraR Inhibition [%], 10 μM synthetic ligand against 100 nM OOHL; for Activation (%) / Inhibition (%): A. tumefaciens-TraR; for Activation (%): Library C primary agonism screen; for Inhibition (%): Library C primary antagonism screen
T1 construct: These strains lack their AHL synthase (I) genes, but retain their native R genes; endogenous in cells; host or cells: A. tumefaciens WCF47 (Δ-traI) with PtraI-lacZ plasmid pCF372
Experimental: A. tumefaciens reporter gene assay protocols. […] An overnight culture of A. tumefaciens WCF47 (pCF372) was diluted to an OD600 of 0.1 in fresh AB minimal medium containing 400 μg/mL octopine and 50 μg/mL streptomycin. A 200 μL-portion of the diluted culture was added to each well of the multititer plate containing AHLs. Plates were grown at 28° C. for 18-20 h in a rotary shaking incubator (200 rpm). The cultures were then assayed for β-galactosidase activity following the Miller assay method. Briefly, 200 μL aliquots of bacteria from each of the wells were added to wells of a polystyrene 96-well plate and the OD600 of each well was recorded. Next, 50 μL aliquots from each well were transferred to a solvent resistant 96-well plate containing 200 μL Z buffer, 8 μL CHCl3 and 4 μL 0.1% aq. sodium dodecylsulfate (SDS). This suspension was mixed via repetitive pipetting, after which the CHCl3 was allowed to settle. A 100-μL aliquot from each well was transferred to a fresh polystyrene 96-well plate, and 20 μL of substrate, o-nitrophenyl-β-D-galactopyranoside (ONPG, 4 μg/mL in phosphate buffer), was added at time zero. After the development of appropriate yellow color (ca. 15-35 min), the reaction was terminated by the addition of 50 μL of 1 M Na2CO3. Absorbance at 420 nm and 550 nm was measured for each well using a plate reader, and Miller units were calculated according to standard methods.
(§1) Dose response reporter gene assays. […] IC50 and EC50 values were calculated using GraphPad Prism software (v. 4.0) using a sigmoidal curve fit.
A. tumefaciens reporter gene assay protocols. […] An overnight culture of A. tumefaciens WCF47 (pCF372) was diluted 1:10 with fresh AB minimal medium containing 400 μg/mL octopine and 50 μg/mL streptomycin. A 200 μL portion of the diluted culture was added to each well of the multititer plate containing AHLs. Plates were incubated at 28° C. for 18-24 h. The cultures were then assayed for β-galactosidase activity following the Miller assay method. Briefly, 200 μL aliquots of bacteria from each of the wells were added to wells of a 96-well multititer plate, and the OD600 of each well was recorded. Next, 50 μL aliquots from each well were transferred to a solvent resistant 96-well multititer plate containing 200 μL Z buffer, 8 μL CHCl3 and 4 μL 0.1% aq. SDS. This suspension was mixed via repetitive pipetting, after which the CHCl3 was allowed to settle. A 100 μL aliquot from each well was transferred to a fresh 96-well multititer plate, and 20 μL of substrate, o-nitrophenyl-β-D-galactopyranoside (ONPG, 4 μg/mL in phosphate buffer), was added at time zero. After the development of appropriate yellow color (ca. 20-30 min), the reaction was terminated by the addition of 50 μL of 1 M Na2CO3. Absorbances at 420 nm and 550 nm were measured for each well using a plate reader, and Miller units were calculated according to standard methods.
as §1

LasR [1] = target: T2, LasR (Pseudomonas aeruginosa, UniProt P25084); format: cell-based; conditions: for E. coli-LasR Inhibition [%]: 5 μM synthetic ligand against 7.5 nM OdDHL; for E. coli-LasR Inhibition [%] / inhibition at 5 µM: E. coli DH5α (pJN105L pSC11), normalized to OdDHL; for inhibition at 5 µM: read-out: E. coli-LasR Inhibition [%], 5 μM synthetic ligand against 7.5 nM OdDHL; for Inhibition (%): E. coli-LasR, Library C primary antagonism screen
T2 construct: expressed in transfected cells; host or cells: E. coli DH5α (pJN105L pSC11), arabinose-induced
Experimental: (§2) E. coli LasR reporter gene assay protocols. […] An overnight culture of E. coli DH5a (pJN105L pSC11) grown at 37° C. was subculture by diluting 1/10 in fresh LB medium containing 100 μg/mL ampicillin and 15 μg/mL gentamicin and shaking at 37° C. until OD600=0.3. Arabinose (4 mg/mL) was then added to induce the LasR promoter and a 200 μL-portion of this culture was added to each well of the multititer plate containing AHLs. Plates were grown at 37° C. for 2 hours in a rotary shaking incubator (200 rpm; OD600=0.45). The cultures were then assayed for activity following the identical β-galactosidase assay protocols used in the A. tumefaciens reporter gene assays.
as §1
(§3) E. coli LasR reporter gene assay protocols. […] An overnight culture of E. coli DH5α (pJN105L pSC11) was diluted 1:10 with fresh LB medium containing 100 μg/mL ampicillin and 15 μg/mL gentamicin. This sub-culture was incubated at 37° C. until OD600=0.3 (4-6 h). Arabinose (4 mg/mL) was then added to induce the LasR promoter, and a 200 μL portion of this culture was added to each well of the multititer plate containing AHLs. Plates were incubated at 37° C. until OD600=0.45 (4-6 h). The cultures were then assayed for LasR activity following the identical β-galactosidase assay protocols used in the A. tumefaciens reporter gene assays (see above).
as §1

LasR [2] = target: T2, LasR; conditions: for E. coli-LasR Activation [%]: 5 μM ligand; for E. coli-LasR Activation [%] / activation at 5 µM: E. coli DH5α (pJN105L pSC11), normalized to OdDHL; for activation at 5 µM: read-out: E. coli-LasR Activation [%], 5 μM ligand; for Activation (%): E. coli-LasR, Library C primary agonism screen
Experimental: as §2, §1, §3, §1

LuxR [3] = target: T3, LuxR (Aliivibrio fischeri, UniProt P35327); format: cell-based, Vibrio fischeri; conditions: for V. fischeri-LuxR Inhibition [%]: 5 μM synthetic ligand against 5 μM OHHL; for Inhibition (%): V. fischeri-LuxR, Library C primary antagonism screen
T3 construct: a Δ-luxI derivative of V. fischeri ES114, in which the native lux operon behaves as the bioluminescent reporter; endogenous in cells; host or cells: V. fischeri ES114 (Δ-luxI)
Experimental: (§4) Luminescence assays. For agonism assays, an appropriate amount of AHL stock solution was added into a 96-well plate. An overnight culture of E. coli or V. fischeri was diluted 1:10 with appropriate media (LB plus 10 μg/mL tetracycline for E. coli; LBS for V. fischeri). A 200-μL portion of the diluted culture was added to each well of the plate. Plates were grown for 4-8 h with shaking (200 rpm; 30° C. for E. coli and RT for V. fischeri). Luminescence was measured using a multilabel plate reader and normalized to cell density. […] All assays were performed in triplicate. Graphpad Prism software was used to calculate IC50 and EC50 values.
(§5) Vibrio fischeri assay procedures. […] An overnight culture of V. fischeri ES114 (WT, Δ-luxI or Δ-luxR) was diluted 1:10 with LBS medium. A-200 μL portion of the diluted culture was added to each well of the plate. Plates were grown at RT with shaking (200 rpm) until the OD600=0.35-0.4 (4-6 h). Luminescence then was measured and normalized to cell density per well. […] All assays were performed in triplicate. IC50 and EC50 values were calculated using GraphPad Prism software using a sigmoidal curve fit.
(§6) V. fischeri reporter gene assay protocols. […] An overnight culture of V. fischeri ES114 (D-luxI) was diluted 1:10 with LBS medium. A 200-μL portion of the diluted culture was added to each well of the multititer plate. Plates were grown at RT with shaking (200 rpm) until the OD600=0.35-0.4 (4-6 h). Luminescence then was measured and normalized to cell density per well.
as §1
as §6, with “(Δ-luxI)” for “(D-luxI)”, “A200 μL” for “A 200-μL”, “incubated” for “grown”, “RT” for “RT with shaking (200 rpm)”
as §1

LuxR [4] = target: T3, LuxR; set-up: species or system Vibrio fischeri; conditions: for V. fischeri-LuxR Activation [%]: 200 μM ligand; for V. fischeri-LuxR Activation [%] / activation at 200 µM: V. fischeri ES114 (Δ-luxI), normalized to OHHL; for activation at 200 µM: read-out: V. fischeri-LuxR Activation [%], 200 μM ligand; for Activation (%): V. fischeri-LuxR, Library C primary agonism screen
Experimental: as §4, §5, §6, §1
as §6, with “(Δ-luxI)” for “(D-luxI)”, “A200 μL” for “A 200-μL”, “incubated” for “grown”, “RT” for “RT with shaking (200 rpm)”
as §1

[5] = V. fischeri ES114 (Δ-luxI), normalized to OHHL
[6] = determined against 100 nM OOHL, read-out: TraR IC50

T3 sequence (P35327 whole entry): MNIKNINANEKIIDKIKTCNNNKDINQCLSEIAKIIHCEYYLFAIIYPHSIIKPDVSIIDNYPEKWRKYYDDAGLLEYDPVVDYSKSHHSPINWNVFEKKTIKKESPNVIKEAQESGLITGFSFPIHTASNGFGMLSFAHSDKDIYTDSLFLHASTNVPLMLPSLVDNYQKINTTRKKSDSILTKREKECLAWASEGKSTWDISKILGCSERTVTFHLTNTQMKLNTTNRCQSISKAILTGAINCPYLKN
T1 sequence (P33905 whole entry): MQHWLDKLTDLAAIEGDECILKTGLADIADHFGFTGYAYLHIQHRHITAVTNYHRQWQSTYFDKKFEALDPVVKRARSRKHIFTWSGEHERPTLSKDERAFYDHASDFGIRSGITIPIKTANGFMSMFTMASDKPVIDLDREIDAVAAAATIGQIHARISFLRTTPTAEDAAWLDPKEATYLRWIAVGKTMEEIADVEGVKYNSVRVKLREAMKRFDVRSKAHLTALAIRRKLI
T2 sequence (P25084 whole entry): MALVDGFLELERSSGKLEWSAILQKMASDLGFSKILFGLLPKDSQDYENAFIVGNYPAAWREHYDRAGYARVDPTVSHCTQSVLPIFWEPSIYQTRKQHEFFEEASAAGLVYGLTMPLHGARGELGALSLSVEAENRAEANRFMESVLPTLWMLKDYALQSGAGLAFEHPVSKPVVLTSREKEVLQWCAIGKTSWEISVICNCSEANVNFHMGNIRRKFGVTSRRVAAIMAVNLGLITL

SMILES | A. tumefaciens-TraR Activation [%] (TraR) | A. tumefaciens-TraR Inhibition [%] (TraR) | E. coli-LasR Inhibition [%] (LasR [1]) | E. coli-LasR Activation [%] (LasR [2]) | V. fischeri-LuxR Inhibition [%] (LuxR [3]; [5]) | V. fischeri-LuxR Activation [%] (LuxR [4]) | other results
O=C(CC(=O)N[C@@H]1CCOC1=O)Cc1ccccc1 [B2] | 2% | 50% | −7% | 84% | 46% | 3% | EC50 (LasR [2]; read-out: LasR EC50): 540 nM
O=C(CC1CCCC1)N[C@H]1CCOC1=O [B12] | 0% | 11% | 19% | 0% | 57% | 3% | 
O=C(Cc1ccccc1I)N[C@H]1CCOC1=O [B15] | 0% | 5% | 17% | 0% | 63% | 7% | 
O=C(Cc1ccc([N+](=O)[O-])cc1)NC1CCOC1=O (centres unmarked) [B16, 4-nitro PHL] |  |  |  |  |  |  | IC50 (TraR): 2250 nM; activation at 10 µM (TraR): 1%; inhibition at 10 µM (TraR): ~90%; inhibition at 5 µM (LasR [1]): 27%; activation at 5 µM (LasR [2]): 0%; inhibition at 5 µM (LuxR [3]; read-out: V. fischeri-LuxR Inhibition [%], 5 μM synthetic ligand against 5 μM OHHL, V. fischeri ES114 (Δ-luxI), normalized to OHHL): 47%; activation at 200 µM (LuxR [4]): ~25%
O=C(Cc1ccccc1[N+](=O)[O-])N[C@H]1CCOC1=O [B18] | 0% | 1% | 17% | 0% | 23% | 4% | 
O=C(Cc1c(F)c(F)c(F)c(F)c1F)N[C@H]1CCOC1=O [B19, pentafluoroaromatic PHL] | 0% | 2% | 19% | 2% | 40% | 2% | 
O=C(Cc1ccc(N=Nc2ccccc2)cc1)NC1CCOC1=O (centres unmarked) [B22] | 0% | 9% | 13% | 1% | 63% | 3% | 
O=C(Cc1ccc(C(F)(F)F)cc1)N[C@H]1CCOC1=O [B23, 4-trifluoromethyl PHL] |  |  |  |  | 78% |  | activation at 10 µM (TraR): 2%; inhibition at 10 µM (TraR): 92%; inhibition at 5 µM (LasR [1]): 26%; activation at 5 µM (LasR [2]): 0%; IC50 (LuxR [3]; determined against 5 μM OHHL, read-out: LuxR IC50): 610 nM; activation at 200 µM (LuxR [4]): 3%
COc1ccc(CC(=O)N[C@H]2CCOC2=O)cc1 [B28] | 0% | 26% | 16% | 0% | 57% | 3% | 
CCOc1ccc(CC(=O)N[C@H]2CCOC2=O)cc1 [B29] | 0% | 35% | 15% | 0% | 55% | 2% | 
O=C(Cc1ccc(C(F)(F)F)cc1)N[C@H]1CCOC1=O [C20, 4-trifluoromethyl PHL] |  |  |  |  |  |  | Activation (%) (TraR): 2%; Inhibition (%) (TraR): 92%; IC50 (TraR; [6]): 810 nM; Inhibition (%) (LasR [1]): 26%; Activation (%) (LasR [2]): 0%; Inhibition (%) (LuxR [3]): 78%; Activation (%) (LuxR [4]): 3%
COc1ccc(CC(=O)N[C@H]2CCOC2=O)cc1 [C24] |  |  |  |  |  |  | Activation (%) (TraR): 0%; Inhibition (%) (TraR): 26%; Inhibition (%) (LasR [1]): 16%; Activation (%) (LasR [2]): 0%; Inhibition (%) (LuxR [3]): 57%; Activation (%) (LuxR [4]): 3%
COc1cc(C(C)=O)ccc1OCC(=O)N[C@H]1CCOC1=O [D16] | 0% | 11% | 18% | 0% | 40% | 1% | 
CC(=O)c1ccc(OCC(=O)N[C@H]2CCOC2=O)cc1C [D17] | 1% | 92% | 26% | 0% | 50% | 2% | IC50 (TraR; [6]): 1400 nM
